Measurements reported in ChEMBL document CHEMBL1201862, “PubChem BioAssay data set” (2004).
The source made the active and inactive calls.

Legend:
[1] = biological target: T1, Histone-lysine N-methyltransferase NSD2 (Homo sapiens, UniProt O96028); type: biochemical
T1 sequence (O96028 whole entry): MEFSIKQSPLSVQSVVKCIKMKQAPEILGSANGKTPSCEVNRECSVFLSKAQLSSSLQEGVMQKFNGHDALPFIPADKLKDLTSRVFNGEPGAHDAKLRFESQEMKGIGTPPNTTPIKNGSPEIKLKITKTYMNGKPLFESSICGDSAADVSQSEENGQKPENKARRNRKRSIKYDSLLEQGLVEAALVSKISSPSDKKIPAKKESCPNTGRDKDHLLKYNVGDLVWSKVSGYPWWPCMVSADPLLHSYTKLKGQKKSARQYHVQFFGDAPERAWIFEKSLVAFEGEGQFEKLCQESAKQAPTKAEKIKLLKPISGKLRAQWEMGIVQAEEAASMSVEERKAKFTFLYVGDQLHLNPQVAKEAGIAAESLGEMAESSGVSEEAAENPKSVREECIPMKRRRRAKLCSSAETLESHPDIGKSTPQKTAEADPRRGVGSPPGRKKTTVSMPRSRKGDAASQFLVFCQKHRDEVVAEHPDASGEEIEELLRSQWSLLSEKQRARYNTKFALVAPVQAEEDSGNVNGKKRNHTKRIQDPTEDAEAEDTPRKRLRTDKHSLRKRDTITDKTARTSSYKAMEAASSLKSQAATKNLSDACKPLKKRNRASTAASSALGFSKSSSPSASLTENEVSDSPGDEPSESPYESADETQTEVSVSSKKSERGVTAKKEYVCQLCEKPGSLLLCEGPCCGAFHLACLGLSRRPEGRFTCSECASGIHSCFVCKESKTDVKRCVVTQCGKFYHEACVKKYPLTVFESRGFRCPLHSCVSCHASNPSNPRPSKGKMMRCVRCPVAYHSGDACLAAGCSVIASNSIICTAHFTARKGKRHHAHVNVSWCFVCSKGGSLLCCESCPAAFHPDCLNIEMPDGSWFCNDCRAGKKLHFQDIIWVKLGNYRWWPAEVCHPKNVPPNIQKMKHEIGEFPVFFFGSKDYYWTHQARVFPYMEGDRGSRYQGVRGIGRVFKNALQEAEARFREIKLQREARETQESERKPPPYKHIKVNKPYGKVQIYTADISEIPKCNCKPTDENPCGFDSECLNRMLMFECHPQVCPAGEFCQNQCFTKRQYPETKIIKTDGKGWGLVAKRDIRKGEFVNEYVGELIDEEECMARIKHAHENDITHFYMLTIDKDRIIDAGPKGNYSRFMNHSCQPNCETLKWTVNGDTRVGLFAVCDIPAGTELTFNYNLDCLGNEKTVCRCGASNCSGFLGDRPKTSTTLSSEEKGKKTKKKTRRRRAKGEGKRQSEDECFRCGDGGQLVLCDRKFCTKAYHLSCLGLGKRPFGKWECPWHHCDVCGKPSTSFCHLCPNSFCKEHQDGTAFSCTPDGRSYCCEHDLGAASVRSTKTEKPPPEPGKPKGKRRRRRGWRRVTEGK

[2] = biological target: T2, Short transient receptor potential channel 4 (Mus musculus, UniProt Q9QUQ5); test: mouse TRPC4 channel activators, dose response, cell-based, HEK293 TRPC4/mu-opioid, Fluo-4 calcium (AID 434937); type: functional
T2 sequence (Q9QUQ5 whole entry): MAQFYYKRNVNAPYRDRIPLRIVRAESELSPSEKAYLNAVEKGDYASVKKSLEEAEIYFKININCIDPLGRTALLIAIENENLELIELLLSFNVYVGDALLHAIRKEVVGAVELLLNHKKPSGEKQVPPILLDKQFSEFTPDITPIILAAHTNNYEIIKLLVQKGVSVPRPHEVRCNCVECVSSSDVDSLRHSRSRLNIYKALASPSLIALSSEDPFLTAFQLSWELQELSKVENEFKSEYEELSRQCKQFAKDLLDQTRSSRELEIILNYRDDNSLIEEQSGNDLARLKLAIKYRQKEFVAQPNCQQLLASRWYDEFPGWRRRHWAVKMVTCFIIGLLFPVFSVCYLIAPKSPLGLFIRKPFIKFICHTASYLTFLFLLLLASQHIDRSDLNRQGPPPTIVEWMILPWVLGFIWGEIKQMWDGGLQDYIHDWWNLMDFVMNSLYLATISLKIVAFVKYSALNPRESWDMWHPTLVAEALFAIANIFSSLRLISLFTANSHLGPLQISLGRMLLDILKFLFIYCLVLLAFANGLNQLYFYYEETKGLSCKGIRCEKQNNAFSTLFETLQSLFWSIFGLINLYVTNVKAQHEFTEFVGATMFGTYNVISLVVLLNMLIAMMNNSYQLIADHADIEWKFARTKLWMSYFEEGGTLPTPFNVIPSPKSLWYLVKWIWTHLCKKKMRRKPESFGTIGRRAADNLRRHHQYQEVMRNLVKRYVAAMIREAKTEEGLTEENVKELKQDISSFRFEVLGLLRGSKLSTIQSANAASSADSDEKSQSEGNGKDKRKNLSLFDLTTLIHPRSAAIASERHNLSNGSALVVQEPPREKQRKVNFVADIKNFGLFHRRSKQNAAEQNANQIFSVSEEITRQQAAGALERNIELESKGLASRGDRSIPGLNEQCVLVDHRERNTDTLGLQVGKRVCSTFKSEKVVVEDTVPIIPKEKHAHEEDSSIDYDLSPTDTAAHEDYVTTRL

[3] = biological target: Photoreceptor-specific nuclear receptor (Homo sapiens, UniProt Q9Y5X4); type: functional, cell-based;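 also: CHO-S cells with Gal4-NCOR and VP16-NR2E3 two-hybrid luciferase reporter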
[4] = C. albicans growth with fluconazole, confirmation, fluorescence, retest (AID 2467); type: functional, cell-based
[5] = NIH-3T3 fibroblast cytotoxicity, dose response, cytotoxicity control, cell-based, fluorescence, Alamar Blue, secondary assay (AID 2327); type: functional;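 also: NIH-3T3 mouse fibroblasts cultured with fluconazole at 8 µg/mL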
[6] = cytotoxicity toward NIH3T3 fibroblasts, dose response, counter-screen, cell-based, ATP luminescence, mouse fibroblasts (AID 2010); type: functional;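 also: cells exposed to compound for about 90 hours before reading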
[7] = inhibitors of intracellular T. cruzi replication, confirmation, NIH3T3 host cells, beta-gal luminescence (AID 2044); type: functional, cell-based;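 also: intracellular parasites grown in NIH/3T3 mouse fibroblasts as host cells; luminescent beta-galactosidase reporter signal from transgenic T. cruzi replicating inside host cells; inhibitors lower the luminescence signal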
HEK293 = test: inhibitors of LMP1-driven NF-kB reporter, dose response, cell-based, HEK293, luciferase, cherry-pick (AID 588343); type: functional; details: Homo sapiens
[8] = cytotoxicity in HEK-293T cells, dose response, cytotoxicity control for TCR NF-kB inhibitor project, luminescence, T-cell screen hits (AID 489026); type: functional, cell-based;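 also: cells exposed to compound about 14 hours before the viability readout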
[9] = microbe, parasite or virus in culture; type: functional; details: Mycobacterium tuberculosis
[10] = biological target: T3, High affinity choline transporter 1 (Homo sapiens, UniProt Q9GZV3); test: CHT inhibitors, dose response, cell-based, 5-point CRC, membrane potential dye (AID 504840); type: functional
T3 sequence (Q9GZV3 whole entry): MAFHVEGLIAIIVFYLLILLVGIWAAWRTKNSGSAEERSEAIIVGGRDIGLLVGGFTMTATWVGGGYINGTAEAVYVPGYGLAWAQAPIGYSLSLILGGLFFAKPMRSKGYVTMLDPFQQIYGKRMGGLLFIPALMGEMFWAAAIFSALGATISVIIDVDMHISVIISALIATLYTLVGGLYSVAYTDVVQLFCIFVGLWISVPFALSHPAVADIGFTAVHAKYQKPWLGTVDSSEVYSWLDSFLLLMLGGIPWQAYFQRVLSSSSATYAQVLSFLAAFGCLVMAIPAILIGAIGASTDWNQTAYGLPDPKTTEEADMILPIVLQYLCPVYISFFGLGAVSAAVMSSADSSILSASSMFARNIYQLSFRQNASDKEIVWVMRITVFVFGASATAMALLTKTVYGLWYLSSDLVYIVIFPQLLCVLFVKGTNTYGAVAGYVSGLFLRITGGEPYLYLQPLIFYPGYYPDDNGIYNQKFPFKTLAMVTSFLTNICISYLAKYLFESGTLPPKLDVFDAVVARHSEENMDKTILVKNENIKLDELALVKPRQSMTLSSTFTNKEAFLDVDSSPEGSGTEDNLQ

[11] = biological target: Heat shock protein HSP 90-alpha (Homo sapiens, UniProt P07900); type: functional, organism-based
Vero = test: cells; type: functional; details: Chlorocebus sabaeus
[12] = Luminescence Cell-Based Dose Retest to Confirm Inhibitors of Cancer Stem Cells. [Related pubchem assays (depositor defined):AID2717, AID2721]; type: functional; details: Homo sapiens
Fatty acid synthase [13] = biological target: T4, Fatty acid synthase (Homo sapiens, UniProt P49327); test: FAS thioesterase domain inhibitors, dose response, biochemical, endpoint fluorescence intensity, uHTS hits (AID 624327); type: functional;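 also: fluorescence from hydrolysis of an O-methyl fluorescein acyl ester substrate by the enzyme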
Fatty acid synthase [14] = biological target: T4, Fatty acid synthase; test: FAS thioesterase domain inhibitors, dose response, biochemical, kinetic fluorescence intensity (AID 624326); type: functional;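 also: rate of fluorescence rise from hydrolysis of a fluorogenic O-methyl fluorescein ester substrate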
[15] = inhibitors of firefly luciferase expression or activity, dose response, H4 neuroglioma cells, luminescence (AID 1990); type: functional, cell-based
[16] = test system: Streptococcus sp. 'group A'; test: growth inhibition of control SK(-) GAS strain, dose response, counter-screen for streptokinase expression inhibitor project, luminescence, kanamycin, BacTiterGlo, confirmation (AID 1900); type: functional, organism-based
[17] = Luminescence Cell-Based Dose Response HTS to Identify Inhibitors of 5'UTR Stem-Loop Driven Prion Protein mRNA Translation in H4 Neuroglioblastoma Cells. [Related pubchem assays: 1827 (Project Summary), 1813 (Primary HTS)]; type: functional
Streptococcus = test: Group A Streptococcus viability loss, dose response, counter-screen for streptokinase expression inhibitor project, luminescence, BacTiterGlo (AID 1915); type: functional, organism-based;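 also: potency for reduction of bacterial viability or growth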
[18] = inhibitors of SNCA 5'UTR-driven reporter translation, confirmation, H4 neuroglioma cells, luminescence (AID 1988); type: functional, cell-based
cells = type: functional
[19] = biological target: T5, DNA repair protein RAD52 homolog (Homo sapiens, UniProt P43351); type: functional, biochemical
T5 sequence (P43351 whole entry): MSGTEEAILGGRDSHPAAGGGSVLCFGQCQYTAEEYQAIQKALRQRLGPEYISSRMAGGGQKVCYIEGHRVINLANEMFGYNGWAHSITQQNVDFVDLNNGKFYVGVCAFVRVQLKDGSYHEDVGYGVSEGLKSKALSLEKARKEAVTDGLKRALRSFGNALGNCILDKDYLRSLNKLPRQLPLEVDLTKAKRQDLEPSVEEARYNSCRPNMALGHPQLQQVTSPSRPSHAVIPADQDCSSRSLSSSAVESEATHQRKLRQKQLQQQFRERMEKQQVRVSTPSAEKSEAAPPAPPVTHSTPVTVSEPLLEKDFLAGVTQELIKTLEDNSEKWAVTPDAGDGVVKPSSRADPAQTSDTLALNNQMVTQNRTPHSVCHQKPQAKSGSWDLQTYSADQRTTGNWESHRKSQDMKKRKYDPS

[20] = biological target: Induced myeloid leukemia cell differentiation protein Mcl-1 (Homo sapiens, UniProt Q07820); type: functional
[21] = HEp-2 cell cytotoxicity, dose response, cytotoxicity control for RSV inhibitor project, HTS (AID 2410); type: functional; details: human respiratory syncytial virus

Photoreceptor-specific nuclear receptor, sequence (Q9Y5X4 whole entry, the tested form may be a part): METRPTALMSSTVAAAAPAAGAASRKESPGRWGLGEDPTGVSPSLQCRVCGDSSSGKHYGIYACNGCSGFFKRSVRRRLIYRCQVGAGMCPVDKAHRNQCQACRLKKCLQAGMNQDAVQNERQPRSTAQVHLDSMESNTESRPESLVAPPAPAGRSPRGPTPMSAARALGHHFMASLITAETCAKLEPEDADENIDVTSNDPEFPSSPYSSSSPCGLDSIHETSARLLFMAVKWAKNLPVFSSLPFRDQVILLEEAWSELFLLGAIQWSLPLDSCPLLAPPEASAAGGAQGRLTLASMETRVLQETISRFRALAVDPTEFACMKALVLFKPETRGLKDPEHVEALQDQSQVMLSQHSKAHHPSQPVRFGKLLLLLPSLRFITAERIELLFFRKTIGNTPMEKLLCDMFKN
T4 sequence (P49327 whole entry, the tested form may be a part): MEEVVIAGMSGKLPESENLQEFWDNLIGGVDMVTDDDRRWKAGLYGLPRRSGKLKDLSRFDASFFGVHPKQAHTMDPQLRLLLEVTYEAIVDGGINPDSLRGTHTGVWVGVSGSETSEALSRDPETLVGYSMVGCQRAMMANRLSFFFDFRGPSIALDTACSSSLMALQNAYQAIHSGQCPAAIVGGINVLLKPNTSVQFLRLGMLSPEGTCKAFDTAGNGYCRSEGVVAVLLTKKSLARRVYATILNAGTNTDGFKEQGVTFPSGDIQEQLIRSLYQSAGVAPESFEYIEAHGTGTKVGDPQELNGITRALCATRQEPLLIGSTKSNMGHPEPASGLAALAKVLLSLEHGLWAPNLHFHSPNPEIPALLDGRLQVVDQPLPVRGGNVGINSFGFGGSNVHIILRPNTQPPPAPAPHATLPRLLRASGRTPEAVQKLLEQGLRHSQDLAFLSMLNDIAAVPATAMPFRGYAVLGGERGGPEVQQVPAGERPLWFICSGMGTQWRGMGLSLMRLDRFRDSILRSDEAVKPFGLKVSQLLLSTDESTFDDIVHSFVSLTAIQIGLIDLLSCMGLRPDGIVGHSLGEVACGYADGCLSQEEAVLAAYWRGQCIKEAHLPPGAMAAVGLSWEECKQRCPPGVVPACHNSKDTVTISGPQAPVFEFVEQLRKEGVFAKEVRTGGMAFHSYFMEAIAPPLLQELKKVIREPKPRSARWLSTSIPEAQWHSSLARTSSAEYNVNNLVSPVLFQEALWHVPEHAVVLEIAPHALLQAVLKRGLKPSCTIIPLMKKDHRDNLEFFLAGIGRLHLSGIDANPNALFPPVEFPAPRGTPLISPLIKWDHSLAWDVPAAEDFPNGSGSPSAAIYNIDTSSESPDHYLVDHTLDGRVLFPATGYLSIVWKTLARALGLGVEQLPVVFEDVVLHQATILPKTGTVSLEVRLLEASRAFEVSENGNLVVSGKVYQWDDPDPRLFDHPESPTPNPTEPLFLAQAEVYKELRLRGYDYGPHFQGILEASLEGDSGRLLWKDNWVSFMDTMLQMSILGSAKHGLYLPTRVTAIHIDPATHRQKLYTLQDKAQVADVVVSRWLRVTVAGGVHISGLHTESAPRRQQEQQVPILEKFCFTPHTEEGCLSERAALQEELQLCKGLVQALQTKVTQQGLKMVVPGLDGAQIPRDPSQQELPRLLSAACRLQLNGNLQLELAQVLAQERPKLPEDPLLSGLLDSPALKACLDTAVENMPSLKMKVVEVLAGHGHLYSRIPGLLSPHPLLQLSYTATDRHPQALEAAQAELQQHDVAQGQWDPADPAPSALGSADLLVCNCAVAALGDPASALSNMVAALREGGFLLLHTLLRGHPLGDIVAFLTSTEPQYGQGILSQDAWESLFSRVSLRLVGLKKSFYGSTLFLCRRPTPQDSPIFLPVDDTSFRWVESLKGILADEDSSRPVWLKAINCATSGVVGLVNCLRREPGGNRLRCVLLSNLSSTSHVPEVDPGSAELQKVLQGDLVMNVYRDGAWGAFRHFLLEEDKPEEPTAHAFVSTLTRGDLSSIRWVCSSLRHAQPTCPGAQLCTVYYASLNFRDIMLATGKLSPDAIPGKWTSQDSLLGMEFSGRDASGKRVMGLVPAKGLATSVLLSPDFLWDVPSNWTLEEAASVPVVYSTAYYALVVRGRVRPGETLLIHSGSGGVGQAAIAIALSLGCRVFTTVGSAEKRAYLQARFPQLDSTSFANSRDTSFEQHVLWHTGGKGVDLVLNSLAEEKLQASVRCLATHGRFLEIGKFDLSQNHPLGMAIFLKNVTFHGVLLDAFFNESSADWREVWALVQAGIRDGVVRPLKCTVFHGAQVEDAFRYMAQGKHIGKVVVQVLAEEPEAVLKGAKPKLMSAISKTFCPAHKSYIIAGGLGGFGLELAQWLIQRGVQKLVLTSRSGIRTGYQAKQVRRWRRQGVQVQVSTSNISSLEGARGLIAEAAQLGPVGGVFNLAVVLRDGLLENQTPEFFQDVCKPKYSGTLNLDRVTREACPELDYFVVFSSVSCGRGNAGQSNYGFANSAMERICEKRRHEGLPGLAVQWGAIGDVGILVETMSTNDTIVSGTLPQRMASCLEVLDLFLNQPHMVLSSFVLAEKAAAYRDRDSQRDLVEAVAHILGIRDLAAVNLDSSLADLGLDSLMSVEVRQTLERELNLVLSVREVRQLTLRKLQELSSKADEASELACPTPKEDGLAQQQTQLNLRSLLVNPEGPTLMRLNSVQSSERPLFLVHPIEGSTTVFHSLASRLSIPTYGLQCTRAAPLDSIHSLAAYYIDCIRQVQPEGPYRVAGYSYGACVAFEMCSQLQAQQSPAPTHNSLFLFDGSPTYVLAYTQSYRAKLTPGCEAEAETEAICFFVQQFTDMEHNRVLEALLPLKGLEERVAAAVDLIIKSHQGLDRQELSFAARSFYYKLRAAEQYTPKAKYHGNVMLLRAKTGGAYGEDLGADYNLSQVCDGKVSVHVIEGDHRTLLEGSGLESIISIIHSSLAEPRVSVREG
Induced myeloid leukemia cell differentiation protein Mcl-1, sequence (Q07820 whole entry): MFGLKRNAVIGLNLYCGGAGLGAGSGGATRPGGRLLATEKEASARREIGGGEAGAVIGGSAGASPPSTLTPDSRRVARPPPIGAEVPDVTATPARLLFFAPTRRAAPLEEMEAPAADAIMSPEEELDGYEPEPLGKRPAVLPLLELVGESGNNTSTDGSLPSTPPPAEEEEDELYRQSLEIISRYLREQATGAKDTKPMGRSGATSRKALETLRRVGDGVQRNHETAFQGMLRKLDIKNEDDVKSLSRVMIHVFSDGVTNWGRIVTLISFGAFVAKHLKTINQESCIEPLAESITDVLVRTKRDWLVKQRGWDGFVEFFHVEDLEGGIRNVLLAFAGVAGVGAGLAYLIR

CCCCN(CC)CCNC(=O)c1ccc2c(Cl)c3c(nc2c1)CCC3
AC50 [1]: > 20 µM (inactive) | EC50 [2]: 0.024 µM (active)

CC(C)(C)C(=O)Nc1ccc(Sc2ccc([N+](=O)[O-])cc2)cc1
IC50 [3]: 3.51 µM (active)

CN=C(S)N=CNOCc1ccc(Cl)cc1Cl
EC50 [4]: < 0.03 µM (active) | IC50 [3]: 3.21 µM (active) | EC50 [5]: 7.07 µM (inconclusive) | EC50 [6]: 7.02 µM (active) | EC50 [7]: 0.368 µM (active)

CCC(=O)N1CCCc2cc(S(=O)(=O)N3CCN(c4ccccn4)CC3)ccc21
IC50 [3]: 2.3 µM (active)

CC1=C(C(=O)OCc2ccc3c(c2)OCO3)C(c2ccc(Cl)cc2)NC(=O)N1 (configuration not stated)
AC50 (HEK293): 0.299 µM (active) | IC50 [8]: > 80 µM (inactive)

Cc1c(Cl)ccc2sc(N3CCN(C(=O)C4=COCCO4)CC3)nc12
CC50 [9]: 38.1 µM (active) | IC50 [3]: 4.06 µM (active)

CCC1(C)Cc2c(sc3[nH]c(=S)n(Cc4ccccc4)c(=O)c23)CO1 (configuration not stated)
IC50 [3]: 4.95 µM (active)

O=C1CC(O)(C(F)(F)F)Oc2c1ccc1ccccc21 (configuration not stated)
IC50 [10]: 12.9 µM (active) | EC50 [2]: 9.44 µM (active)

CCN1C(=O)/C(=C\C(=O)c2cccs2)c2cc(Br)ccc21
AC50 [11]: 3.66 µM (active) | CC50 (Vero): > 25 µM (active)

COc1ccc(-c2csc3nc(-c4ccccc4F)oc(=O)c23)cc1OC
AC50 [12]: 5.19 µM (active) | IC50 (Fatty acid synthase [13]): 9.02 µM (active) | IC50 (Fatty acid synthase [14]): 6.25 µM (active)

COc1ccc(C(=O)NNC(=S)NC(=O)c2ccccc2)cc1
EC50 [4]: 2.08 µM (active) | EC50 [15]: > 120 µM (not active) | EC50 [5]: > 150 µM (inactive) | EC50 [16]: 1.18 µM (active) | EC50 [17]: 11.6 µM (active) | EC50 (Streptococcus): 3.03 µM (active) | EC50 [2]: 5.96 µM (active) | EC50 [18]: 15.5 µM (active)

COc1ccc(/C=C/c2nc3ccccc3c(=O)o2)cc1
EC50 [15]: 8.15 µM (inconclusive) | AC50 (HEK293): 0.507 µM (active) | IC50 (cells): 21.5 µM (active) | EC50 [17]: 3.01 µM (active) | EC50 [18]: 7.8 µM (inconclusive)

CCOc1cc(/C=C/C(=O)c2ccc(C)cc2)ccc1OCC(=O)N(C)C
CC50 (Vero): > 25 µM (active)

COc1cc2cc(-c3ccc(OC)c(OC)c3C)nc(N)c2cc1OC
EC50 [15]: 0.597 µM (active) | CC50 (Vero): 1.67 µM (active) | AC50 [19]: 12.4 µM (active) | EC50 [17]: 0.48 µM (active) | EC50 [18]: 0.344 µM (active)

NC(=S)n1nc(-c2ccc([N+](=O)[O-])cc2)c(/N=N/c2ccc(Cl)cc2)c1O
IC50 (Fatty acid synthase [13]): 17.5 µM (active) | IC50 (Fatty acid synthase [14]): 9.27 µM (active) | IC50 [20]: > 54 µM (active)

COc1ccc(NC(=O)c2cc3ccccc3oc2=O)cc1
AC50 (HEK293): 0.673 µM (active)

O=C(Nc1ccc(CN2CCOCC2)cc1)c1ccc(-c2cc(Cl)ccc2Cl)o1
CC50 [9]: 29.3 µM (active) | CC50 (Vero): 21.1 µM (active) | CC50 [21]: 4.45 µM (active)
